± gives the standard deviation of the averaged measurements.

The assay relates to HT1080. Description: relative viability vs DMSO control (72 h) (fraction); higher = more viable cells. In outline:
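Sarcoma cell lines were seeded in 384-well plates at densities set to reach 80–90% confluence. After 24 h, 2.5 µl of serially diluted compound was added (source plates 10 mM to 0.0002 mM), and plates were held 72 h at 37 °C, 5% CO2, with 0.1% DMSO vehicle and a 5 µM positive control. Relative viability came from ATPLite readings as percent growth, averaged over up to triplicate wells. Data were rescaled so full viability equals 1 and none equals 0.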

In the case of `C=CC(=O)Nc1cccc(Oc2nc(Nc3ccc(N4CCN(C)CC4)cc3)nc3ccsc23)c1` [Olmutinib], the relative viability by setting is: (0.00017 µM) 1.05 ± 0.021; (0.00051 µM) 1.08 ± 0.014; (0.00152 µM) 1.07 ± 0.017; (0.00457 µM) 1.07 ± 0.018; (0.01372 µM) 1.05 ± 0.049; (0.04115 µM) 1.0797 ± 0.00078. Moreover, the relative viability runs as follows: (0.1235 µM) 1.07 ± 0.011; (0.3704 µM) 1.06 ± 0.019; (1.111 µM) 1.04 ± 0.015; (3.333 µM) 1.03 ± 0.037; (10 µM) 0.492 ± 0.13.

Turning to `CNC(=O)c1cc(Oc2ccc(NC(=O)Nc3ccc(Cl)c(C(F)(F)F)c3)c(F)c2)ccn1` [Regorafenib], the relative viability reads like this: (0.00017 µM) 1.1 ± 0.055; (0.00051 µM) 1.128 ± 0.0073; (0.00152 µM) 1.09 ± 0.012; (0.00457 µM) 1.09 ± 0.012; (0.01372 µM) 1.12 ± 0.028; (0.04115 µM) 1.11 ± 0.056. The relative viability is 1.1 ± 0.02 (0.1235 µM); 1.08 ± 0.021 (0.3704 µM); 1.05 ± 0.014 (1.111 µM); 0.952 ± 0.028 (3.333 µM); 0.542 ± 0.062 (10 µM).

For the molecule `COc1cc2c(cc1O)CCN[C@]21CS[C@@H]2c3c(OC(C)=O)c(C)c4c(c3[C@H](COC1=O)N1[C@@H]2[C@H]2c3c(cc(C)c(OC)c3O)C[C@@H]([C@@H]1O)N2C)OCO4` [Trabectedin], the relative viability worked out at 1.13 ± 0.038 (2 pM); 1.12 ± 0.048 (5 pM); 1.09 ± 0.047 (15 pM); 1.094 ± 0.0095 (50 pM); 1.11 ± 0.031 (0.00014 µM); 1.077 ± 0.0069 (0.00041 µM). Besides, the relative viability turned out to be 0.023 ± 0.0022 (0.0012 µM); 0.21 ± 0.0023 (0.0037 µM); 0.159 ± 0.005 (0.011 µM); 1.08 ± 0.032 (200 fM); 1.14 ± 0.017 (600 fM).

For the origin of these results see the supplement of paper PMC10883282.
